Measured values from patent publication US20120316106A1, “SYNERGISTIC ANTIBIOTIC COMBINATIONS AND DERIVATIVES” (YEDA RESEARCH AND DEVELOPMENT CO. LTD., priority 2009, published 2012).
“Also recorded” adds a separate entry of the source. Read-outs that look alike come from different tables or passages of the source.

Tests used:
[1] = tested on: E. coli cell-free transcription-translation system; assay: Inhibition of E. coli cell-free transcription-translation (firefly luciferase readout); format: biochemical
Protocol: (§1) To address this question, it was first verified that LM binds to the ribosome and inhibits protein synthesis. […] RNA probing was then utilized to follow the binding of LC and LM to the ribosome. For the consistency of structural data, RNA probing experiments were carried out using D. radiodurans large ribosomal subunits. Binding of LC and LM was analyzed using chemical modifying reagents 1-cyclohexyl-3-(2-morpholinoethyl) carbodiimide metho-p-toluene sulfonate (CMCT) and dimethyl sulfate (DMS).
(§2) Antibiotic binding and inhibition of cell-free translation were determined as described in (Xiong, L. et al., 2005, Antimicrob Agents Chemother 49, 281-288). Inhibition of the peptidyl transferase reaction by LC was performed and analyzed as described in. The data were analyzed using Prism 4 (GraphPad Software). RNA probing was carried out as described in (Moazed, D. and Noller, H. F., 1987, Biochemie 69, 879-884) using D50S.
The E. coli cell-free transcription-translation system for circular DNA (Promega) was pre-incubated with varying concentrations of antibiotics for 5 min at 20° C. The reactions (10 μl final volume) were initiated by adding 0.64 μg of pBestLuc plasmid DNA (Promega). Reactions were incubated for 40 min at 20° C. and stopped by chilling on ice. The activity of firefly luciferase synthesized in the reaction was determined in 96-well plates using Bright-Glo Luciferase Assay System (Promega) as recommended by the manufacturer.

[2] = tested on: D. radiodurans 50S ribosomal subunits (23S rRNA); assay: RNA probing (chemical footprinting) of 23S rRNA with CMCT and DMS; format: binding; details: LC 50 μM, LM 500 μM, D50S 200 nM; for Protection of 23S rRNA residues from CMCT modification: ERY 50 μM
Protocol: as §1
Similar to ERY and other 14 member-ring macrolides, binding of LM results in protection of U2609 from CMCT modification and of A2058 and A2059 from DMS chemical modification performed on the 23S rRNA of D. Radiodurans in complex with the combinations of the antibiotics (FIGS. 6C,D). The idiosyncratic protections of 23S rRNA residues were exploited against CMCT modification, afforded by LC and LM, to interrogate their simultaneous interaction with the ribosome. […] However, the accessibility of these residues to CMCT is not affected by LM or ERY (FIG. 6). […] In contrast, and in agreement with the binding experiments, the LC-mediated protection of U2506 and U2585 is partially relieved upon addition of ERY (FIG. 6D) and ERY-dependent protection of U2609 is partly reversed when LC is present. Thus, while LC and ERY compete for the binding to the ribosome, LC and LM can bind simultaneously to their respective targets in the PTC and NPET.
as §2
RNA probing was carried out essentially as described (16, 46) using D. radiodurans 50S ribosomal subunits at 200 nM concentration and antibiotics at the following concentrations: LC—50 μM, LM—500 μM, ERY—50 μM. Prior to addition of the modifying reagents, ribosomal subunits were pre-incubated with the drug 10 min at 37° C. and then 10 min at 20° C.

[3] = biological target: D. radiodurans 50S subunits; assay: Competition with 14C-ERY for binding to 50S subunits; details: 0.1 μM 50S, 0.1 μM 14C-erythromycin, FIG. 5C; read-out: IC50, displacement of 14C-ERY from D50S
Excerpt: S. rochei secretes two antibiotics, a 17-member ring macrocyclic LC and a 14-member ring macrolide, lankamycin (LM). LM is structurally similar to ERY (FIG. 1) and thus it was assumed that it is likely to bind to the ribosome at the site and orientation similar to ERY, namely at the NPET in immediate proximity to the PTC, the LC binding site. […] These observations raised the question whether, similarly to ERY, LM would also compete with LC for ribosome binding.
as §2
D. radiodurans 50S subunits (0.1 μM) were preincubated 15 min at 37° C. with 0.1 μM of ^14C-erthromycin (48.8 mCi/mmol, Perkin Elmer) in 100 μl binding buffer (20 mM Tris-HCl, pH 7.5, 10 mM MgCl2, 250 mM NH4Cl, 6 mM β-mercaptoethanol). […] The ribosome-antibiotic complexes were purified by gel filtration in BioGel P30 spin columns as described (Xiong, L. et al. ibid) and the amount of ribosome-bound radioactivity was measured by scintillation counting.

[4] = tested on: eukaryotic cell-free translation; details: background statement; cited from earlier work
[5] = tested on: Gram-positive bacteria; details: background statement; cited from earlier work
[6] = tested on: Staphylococcus aureus 70S ribosomes; assay: Inhibition of peptidyl transferase (puromycin) reaction, 70S ribosomes; format: biochemical; details: S. aureus 70S ribosomes, FIG. 5B; read-out: IC50, inhibition of puromycin reaction (peptide bond formation)
Protocol: as §2
(§3) In the reaction catalyzed by large ribosomal subunits, D. radiodurans 50S subunits (200 nM final concentration) were combined in 50 μl of the reaction buffer (20 mM Tris-HCl, pH 8.0, 20 mM MgCl2, 400 mM KCl) with 28 nM [^3H]-fMet-tRNA, 1 mM puromycism at varying concentrations of LC. Reactions were initiated by addition of 25 μl methanol and incubated on ice for 30 min. Reactions were stopped and analyzed as described (Maguire et al., 2005, Mol Cell 20, 427-435). In the ribosome-based puromycin assay, 70S ribosomes of S. aureus (at a final concentration of 200 nM) were preincubated for 15 min at 37° C. in 50 μl of polyamine buffer (20 mM HEPES-KOH, pH 7.6, 6 mM Mg-acetate, 150 mM NH4Cl, 4 mM β-mercaptoethanol, 2 mM spermidine, 0.05 mM spermine) with 600 nM mRNA AAGGAGAUAAACAAUGGGU and 28 nM [^3H]-fMet-tRNA. After addition of varying concentrations of LC, puromycin was added to the final concentration of 0.5 mM and reactions were incubated for 15 m in at 37° C. […]

[7] = biological target: large ribosomal subunits of D. radiodurans; assay: Inhibition of peptidyl transferase (puromycin) reaction, isolated large subunits; format: biochemical; details: FIG. 5B, read-out: IC50, inhibition of puromycin reaction (peptide bond formation)
Protocol: as §2, §3

[8] = background statement; cited from earlier work
[9] = Table 2, read-out: [IC50] for antibiotic inhibition of cell free translation
[10] = FIG. 5A / 5D, read-out: IC50, inhibition of bacterial (E. coli) cell-free transcription-translation

Compound | IC50 [1, 9] [nM] | Protection of 23S rRNA residues from CMCT modification [2] | IC50 [1, 10] [nM] | Antibiotic activity against Gram-positive bacteria [5] | Protection of 23S rRNA residues from DMS modification [2] | also measured
CC[C@H]1OC(=O)[C@H](C)[C@@H](O[C@H]2C[C@@](C)(OC)[C@@H](O)[C@H](C)O2)[C@H](C)[C@@H](O[C@@H]2O[C@H](C)C[C@H](N(C)C)[C@H]2O)[C@](C)(O)C[C@@H](C)C(=O)[C@H](C)[C@@H](O)[C@]1(C)O [ERY, erythromycin, reference compound] | 200 | strongly protect U2609 | – | – | – | –
CC(=O)C(=O)N[C@@H]1/C=C(C)/C=C/[C@@H](O)C/C=C(C)/C=C/[C@@H](O)C[C@H]2OC(=O)[C@]1(C)C(=O)[C@@H]2C [LC, Lankacidin C] | – | shields U2506 and U2585 from alterations; also recorded: no effect on this nucleotide | 1500 ± 100 | inhibits growth of Gram-positive bacteria | A2059 became partially protected from DMS whereas modification of A2058 was increased | IC50 [3]: 355 ± 26 nM; Effect on eukaryotic cell-free translation [4]: little effect; IC50 [6]: 320 ± 20 nM; IC50 [7]: 10000 ± 6000 nM
CO[C@H]1C[C@@H](C)O[C@@H](O[C@@H]2[C@@H](C)[C@H](O[C@H]3C[C@@](C)(OC)[C@H](OC(C)=O)[C@H](C)O3)[C@@H](C)C(=O)O[C@H]([C@@H](C)[C@H](C)O)[C@H](C)[C@H](OC(C)=O)[C@@H](C)C(=O)[C@@](C)(O)C[C@@H]2C)[C@@H]1O [LM, lankamycin] | – | strongly protect U2609 | 275000 ± 36000 | weak antibiotic activity | protects A2059 and A2058 from DMS modification | Toxicity in animal models [8]: low toxicity
CC1=C\[C@@H](O)CC(=O)Cc2nc(co2)C(=O)N2CCC=C2C(=O)O[C@H](C(C)C)[C@H](C)/C=C/C(=O)NC\C=C\1 [Virginiamycin M] | 800 | – | – | – | – | –
CC[C@H]1NC(=O)[C@@H](NC(=O)c2ncccc2O)[C@@H](C)OC(=O)[C@H](c2ccccc2)NC(=O)[C@@H]2CC(=O)CCN2C(=O)[C@H](Cc2ccccc2)N(C)C(=O)[C@@H]2CCCN2C1=O [Virginiamycin S] | 2500 | – | – | – | – | –
